Data taken from patent US10597388B2, “Pyridazinone herbicides” (FMC CORPORATION, priority 2014, dated 2020).

Tests used:
Type in all cases: in vivo
[1] = tested on: barnyardgrass (Echinochloa crus-galli); test: Test B flooded paddy test; details: 250 g ai/ha, Flood; visual rating on scale of 0 to 100 where 0 is no effect and 100 is complete control; 13 to 15 d after treatment
Procedure: (§1) Plant species in the flooded paddy test selected from rice (Oryza sativa), sedge, umbrella (small-flower umbrella sedge, Cyperus difformis), ducksalad (Heteranthera limosa), and barnyardgrass (Echinochloa crus-galli) were grown to the 2-leaf stage for testing. At time of treatment, test pots were flooded to 3 cm above the soil surface, treated by application of test compounds directly to the paddy water, and then maintained at that water depth for the duration of the test. Treated plants and controls were maintained in a greenhouse for 13 to 15 d, after which time all species were compared to controls and visually evaluated. Plant response ratings, summarized in Table B, are based on a scale of 0 to 100 where 0 is no effect and 100 is complete control. A dash (-) response means no test result.

[2] = tested on: ducksalad (Heteranthera limosa); test: Test B flooded paddy test; details: 250 g ai/ha, Flood; visual rating on scale of 0 to 100 where 0 is no effect and 100 is complete control; 13 to 15 d after treatment
Procedure: as §1

rice (Oryza sativa) = test: Test B flooded paddy test; details: 250 g ai/ha, Flood; visual rating on scale of 0 to 100 where 0 is no effect and 100 is complete control; 13 to 15 d after treatment
Procedure: as §1

[3] = tested on: sedge, umbrella (small-flower umbrella sedge, Cyperus difformis); test: Test B flooded paddy test; details: 250 g ai/ha, Flood; visual rating on scale of 0 to 100 where 0 is no effect and 100 is complete control; 13 to 15 d after treatment
Procedure: as §1

[4] = tested on: ryegrass, Italian (Italian ryegrass, Lolium multiflorum); test: Test A greenhouse herbicide test, pre- and postemergence
Text: (§2) Seeds of plant species selected from barnyardgrass (Echinochloa crus-galli), kochia (Kochia scoparia), ragweed (common ragweed, Ambrosia elatior), ryegrass, Italian (Italian ryegrass, Lolium multiflorum), crabgrass, large (large crabgrass, Digitaria sanguinalis), foxtail, giant (giant foxtail, Setaria faberii), momingglory (Ipomoea spp.), pigweed (Amaranthus retroflexus), velvetleaf (Abutilon theophrasti), wheat (Triticum aestivum), and corn (Zea mays) were planted into a blend of loam soil and sand and treated preemergence with a directed soil spray using test chemicals formulated in a non-phytotoxic solvent mixture which included a surfactant.
(§3) At the same time, plants selected from these crop and weed species and also blackgrass (Alopecurus myosuroides), and galium (catchweed bedstraw, Galium aparine) were planted in pots containing the same blend of loam soil and sand and treated with postemergence applications of test chemicals formulated in the same manner. Plants ranged in height from 2 to 10 cm and were in the one- to two-leaf stage for the postemergence treatment. Treated plants and untreated controls were maintained in a greenhouse for approximately 10 d, after which time all treated plants were compared to untreated controls and visually evaluated for injury. Plant response ratings, summarized in Table A, are based on a 0 to 100 scale where 0 is no effect and 100 is complete control. A dash (-) response means no test result.

[5] = tested on: barnyardgrass (Echinochloa crus-galli); test: as above
Text: as §2, §3

corn (Zea mays) = test: as above; details: Postemergence; for Plant response rating, Corn: 125 g ai/ha, 0 to 100 scale where 0 is no effect and 100 is complete control; for Corn plant response rating: 500 g ai/ha, 0 to 100 scale, 0 is no effect, 100 is complete control
Text: as §2, §3

[6] = tested on: ragweed (common ragweed, Ambrosia elatior); test: as above
Text: as §2, §3

kochia (Kochia scoparia) = test: as above
Text: as §2, §3

[7] = tested on: foxtail, giant (giant foxtail, Setaria faberii); test: as above
Text: as §2, §3

[8] = tested on: wheat (Triticum aestivum); test: as above; details: Postemergence; for Plant response rating, Wheat: 125 g ai/ha, 0 to 100 scale where 0 is no effect and 100 is complete control; for Wheat plant response rating: 500 g ai/ha, 0 to 100 scale, 0 is no effect, 100 is complete control
Text: as §2, §3

[9] = tested on: pigweed (Amaranthus retroflexus); test: as above
Text: as §2, §3

[10] = tested on: galium (catchweed bedstraw, Galium aparine); test: Test A greenhouse herbicide test, postemergence; details: for Plant response rating, Galium: 125 g ai/ha, 0 to 100 scale where 0 is no effect and 100 is complete control; for Galium plant response rating: 500 g ai/ha, 0 to 100 scale, 0 is no effect, 100 is complete control
In short: (§4)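 Pot-grown plants (loam soil/sand blend), 2–10 cm tall at the one- to two-leaf stage, received postemergence sprays of formulated test chemical. After about 10 d in the greenhouse, injury was rated visually against untreated controls on a 0 (no effect) to 100 (complete control) scale.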

[11] = tested on: blackgrass (Alopecurus myosuroides); test: Test A greenhouse herbicide test, postemergence; details: for Plant response rating, Blackgrass: 125 g ai/ha, 0 to 100 scale where 0 is no effect and 100 is complete control; for Blackgrass plant response rating: 500 g ai/ha, 0 to 100 scale, 0 is no effect, 100 is complete control
In short: as §4

[12] = Postemergence, 125 g ai/ha, 0 to 100 scale where 0 is no effect and 100 is complete control
[13] = Postemergence, 500 g ai/ha, 0 to 100 scale, 0 is no effect, 100 is complete control
[14] = Preemergence, 125 g ai/ha, 0 to 100 scale where 0 is no effect and 100 is complete control
[15] = Preemergence, 500 g ai/ha, 0 to 100 scale, 0 no effect, 100 complete control
[16] = Preemergence, 500 g ai/ha, 0 to 100 scale where 0 is no effect and 100 is complete control

Row | Compound | Plant response rating, Barnyardgrass [1] | Plant response rating, Ducksalad [2] | Plant response rating, Rice (rice (Oryza sativa)) | Plant response rating, Sedge, Umbrella [3] | Plant response rating, Ryegrass, Italian [4, 12] | Ryegrass, Italian plant response rating [4, 13] | Ryegrass, Italian plant response rating [4, 14] | Plant response rating, Barnyardgrass [5, 12] | Barnyardgrass plant response rating [5, 13] | Barnyardgrass plant response rating [5, 14] | Plant response rating, Corn (corn (Zea mays)) | Corn plant response rating (corn (Zea mays)) | Plant response rating, Ragweed [6, 12] | Ragweed plant response rating [6, 13] | Ragweed plant response rating [6, 14] | Plant response rating, Kochia (kochia (Kochia scoparia); [12]) | Kochia plant response rating (kochia (Kochia scoparia); [13]) | Kochia plant response rating (kochia (Kochia scoparia); [14]) | Plant response rating, Foxtail, Giant [7, 12] | Foxtail, Giant plant response rating [7, 13] | other results
1 | COc1nn(C)c(=O)c(-c2cccc3ccccc23)c1O [Compound 55] | 0 | 0 | 0 | 0 | 100 | 100 | 100 | 60 | 90 | 90 | 0 | 20 | 90 | 100 | 90 | 90 | 100 | 70 | 70 | 90 | Plant response rating, Ryegrass, Italian [4, 15]: 100; Plant response rating, Barnyardgrass [5, 15]: 90; Plant response rating, Ragweed [6, 15]: 100; Plant response rating, Kochia (kochia (Kochia scoparia); [15]): 100; Foxtail, Giant plant response rating [7, 14]: 80; Plant response rating, Foxtail, Giant [7, 15]: 100; Plant response rating, Wheat [8]: 0; Wheat plant response rating [8]: 0; Plant response rating, Pigweed [9, 12]: 70; Pigweed plant response rating [9, 13]: 90; Pigweed plant response rating [9, 14]: 70; Plant response rating, Pigweed [9, 15]: 100; Plant response rating, Galium [10]: 100; Galium plant response rating [10]: 100; Plant response rating, Blackgrass [11]: 70; Blackgrass plant response rating [11]: 80
2 | Cc1sc2ccccc2c1-c1c(OC(=O)OC(C)C)c(Cl)nn(C)c1=O [Compound 94] | 0 | 0 | 0 | 0 | 30 | 50 | 20 | 0 | 40 | 0 | 0 | 0 | 10 | 60 | 50 | 30 | 60 | 30 | 30 | 50 | Plant response rating, Ryegrass, Italian [4, 16]: 50; Plant response rating, Barnyardgrass [5, 16]: 40; Plant response rating, Ragweed [6, 16]: 80; Plant response rating, Kochia (kochia (Kochia scoparia); [16]): 70; Foxtail, Giant plant response rating [7, 14]: 20; Plant response rating, Foxtail, Giant [7, 16]: 50; Plant response rating, Wheat [8]: 0; Wheat plant response rating [8]: 20; Plant response rating, Pigweed [9, 12]: 30; Pigweed plant response rating [9, 13]: 70; Pigweed plant response rating [9, 14]: 70; Plant response rating, Pigweed [9, 16]: 90; Plant response rating, Galium [10]: 80; Galium plant response rating [10]: 90; Plant response rating, Blackgrass [11]: 0; Blackgrass plant response rating [11]: 30
